Data taken from ChEMBL document CHEMBL5576127, “New CDDO Arylboronate Ester Derivatives with High Selectivity and Low Toxicity” (J Med Chem, 2024).
The source made the active and inactive calls. The rule behind the calls is not given here.

Key:
BGC-823 [1] = experiment: Induction of apoptosis in human BGC-823 cells assessed as viable cells at 0.5 uM incubated for 48 hrs by Annexin V-FITC/PI staining based flow cytometric analysis ( Rvb = 90.09 %); format: functional; conditions: read-out: Activity
[2] = AUC (0 to t) in rat at 10 mg/kg, ip measured after 24 hrs by LC-MS/MS analysis; format: ADME, organism-based; conditions: in vivo
[3] = Clearance in rat at 10 mg/kg, iv measured after 24 hrs by LC-MS/MS analysis; format: ADME, organism-based; conditions: in vivo
BGC-823 [4] = experiment: Induction of apoptosis in human BGC-823 cells assessed as early apoptotic cells at 0.25 uM incubated for 48 hrs by Annexin V-FITC/PI staining based flow cytometric analysis ( Rvb = 1.68 %); format: functional
Cell membrane [5] = experiment: Induction of mitochondrial membrane potential loss in human BGC-823 cells assessed as increase in number of cells with J-monomers by measuring green fluorescence at 0.5 uM incubated for 24 hrs by JC-1 staining based flow cytometric analysis (reference value: 0.33%); format: cell membranes
BGC-823 [6] = experiment: Induction of apoptosis in human BGC-823 cells assessed as late apoptotic cells at 0.25 uM incubated for 48 hrs by Annexin V-FITC/PI staining based flow cytometric analysis ( Rvb = 5.61 %); format: functional
[7] = Half-life in rat at 10 mg/kg, ip measured after 24 hrs by LC-MS/MS analysis; format: ADME, organism-based; conditions: in vivo
[8] = Apparent volume of distribution in rat at 10 mg/kg, iv measured after 24 hrs by LC-MS/MS analysis; format: ADME, organism-based; conditions: in vivo, read-out: Vz
[9] = GSH reactivity in human BGC-823 cells assessed as GSSG/GSH ratio at 0.4 uM incubated for 24 hrs by microplate reader analysis (reference value: 0.34); format: ADME, cell-based; conditions: bgc-823, 24 h
[10] = Apparent volume of distribution in rat at 10 mg/kg, ip measured after 24 hrs by LC-MS/MS analysis; format: ADME, organism-based; conditions: in vivo
[11] = Half-life in rat at 10 mg/kg, iv measured after 24 hrs by LC-MS/MS analysis; format: ADME, organism-based; conditions: in vivo
BGC-823 [12] = experiment: Induction of apoptosis in human BGC-823 cells assessed as necrotic cells at 0.5 uM incubated for 48 hrs by Annexin V-FITC/PI staining based flow cytometric analysis ( Rvb = 1.79 %); format: functional
[13] = Cmax in rat at 10 mg/kg, iv measured after 24 hrs by LC-MS/MS analysis; format: ADME, organism-based; conditions: in vivo
Cell membrane [14] = experiment: Induction of mitochondrial membrane potential loss in human BGC-823 cells assessed as decrease in number of cells with J-aggregates by measuring red fluorescence at 1 uM incubated for 24 hrs in presence of NAC by JC-1 staining based flow cytometric analysis (reference value: 99.7 %); format: cell membranes; set-up: scale not given: the % may be the effect or the level left
BGC-823 [15] = experiment: Induction of apoptosis in human BGC-823 cells assessed as viable cells at 0.25 uM incubated for 48 hrs by Annexin V-FITC/PI staining based flow cytometric analysis ( Rvb = 90.09 %); format: functional; conditions: read-out: Activity
BGC-823 [16] = experiment: Induction of ROS generation in human BGC-823 cells assessed as cells with green fluorescence at 1 uM incubated for 24 hrs by DCFH-DA staining based analysis relative to control; format: functional
Cell membrane [17] = experiment: Induction of mitochondrial membrane potential loss in human BGC-823 cells assessed as decrease in number of cells with J-aggregates by measuring red fluorescence at 1 uM incubated for 24 hrs by JC-1 staining based flow cytometric analysis (reference value: 99.7 %); format: cell membranes; set-up: scale not given: the % may be the effect or the level left
BGC-823 [18] = experiment: Induction of apoptosis in human BGC-823 cells assessed as necrotic cells at 1 uM incubated for 48 hrs by Annexin V-FITC/PI staining based flow cytometric analysis ( Rvb = 1.79 %); format: functional
BGC-823 [19] = experiment: Induction of ROS generation in human BGC-823 cells assessed as cells with green fluorescence at 0.5 uM incubated for 24 hrs by DCFH-DA staining based analysis relative to control; format: functional
Cell membrane [20] = experiment: Induction of mitochondrial membrane potential loss in human BGC-823 cells assessed as decrease in number of cells with J-aggregates by measuring red fluorescence at 0.5 uM incubated for 24 hrs by JC-1 staining based flow cytometric analysis (reference value: 99.7 %); format: cell membranes; set-up: scale not given: the % may be the effect or the level left
[21] = Clearance in rat at 10 mg/kg, ip measured after 24 hrs by LC-MS/MS analysis; format: ADME, organism-based; conditions: in vivo
[22] = AUC (0 to infinity) in rat at 10 mg/kg, ip measured after 24 hrs by LC-MS/MS analysis; format: ADME, organism-based; conditions: in vivo
[23] = Cmax in rat at 10 mg/kg, ip measured after 24 hrs by LC-MS/MS analysis; format: ADME, organism-based; conditions: in vivo
Cell membrane [24] = experiment: Induction of mitochondrial membrane potential loss in human BGC-823 cells assessed as increase in number of cells with J-monomers by measuring green fluorescence at 1 uM incubated for 24 hrs by JC-1 staining based flow cytometric analysis (reference value: 0.33%); format: cell membranes
BGC-823 [25] = experiment: Induction of ROS generation in human BGC-823 cells assessed as cells with green fluorescence at 0.25 uM incubated for 24 hrs by DCFH-DA staining based analysis relative to control; format: functional
Cell membrane [26] = experiment: Induction of mitochondrial membrane potential loss in human BGC-823 cells assessed as decrease in number of cells with J-aggregates by measuring red fluorescence at 0.25 uM incubated for 24 hrs by JC-1 staining based flow cytometric analysis (reference value: 99.7 %); format: cell membranes; set-up: scale not given: the % may be the effect or the level left
[27] = AUC (0 to t) in rat at 10 mg/kg, iv measured after 24 hrs by LC-MS/MS analysis; format: ADME, organism-based; conditions: in vivo
BGC-823 [28] = experiment: Induction of apoptosis in human BGC-823 cells assessed as late apoptotic cells at 0.5 uM incubated for 48 hrs by Annexin V-FITC/PI staining based flow cytometric analysis ( Rvb = 5.61 %); format: functional
Cell membrane [29] = experiment: Induction of mitochondrial membrane potential loss in human BGC-823 cells assessed as increase in number of cells with J-monomers by measuring green fluorescence at 0.25 uM incubated for 24 hrs by JC-1 staining based flow cytometric analysis (reference value: 0.33%); format: cell membranes
Cell membrane [30] = experiment: Induction of mitochondrial membrane potential loss in human BGC-823 cells assessed as increase in number of cells with J-monomers by measuring green fluorescence at 1 uM incubated for 24 hrs in presence of NAC by JC-1 staining based flow cytometric analysis (reference value: 0.33%); format: cell membranes
BGC-823 [31] = experiment: Induction of apoptosis in human BGC-823 cells assessed as necrotic cells at 0.25 uM incubated for 48 hrs by Annexin V-FITC/PI staining based flow cytometric analysis ( Rvb = 1.79 %); format: functional
[32] = Binding affinity to DTT in PBS assessed as UV peak appearance at 288 nm at 360 uM by UV-Vis spectra analysis
BGC-823 [33] = experiment: Induction of apoptosis in human BGC-823 cells assessed as viable cells at 1 uM incubated for 48 hrs by Annexin V-FITC/PI staining based flow cytometric analysis ( Rvb = 90.09 %); format: functional; conditions: read-out: Activity
BGC-823 [34] = experiment: Cell cycle arrest in human BGC-823 cells assessed as accumulation of cells at G2/M phase incubated for 24 hrs by PI staining based flow cytometric analysis; format: functional
BGC-823 [35] = experiment: Induction of ROS generation in human BGC-823 cells assessed as cells with green fluorescence at 0.25 uM incubated for 24 hrs in presence of NAC by DCFH-DA staining based analysis relative to control; format: functional
BGC-823 [36] = experiment: Induction of apoptosis in human BGC-823 cells assessed as early apoptotic cells at 1 uM incubated for 48 hrs by Annexin V-FITC/PI staining based flow cytometric analysis ( Rvb = 1.68 %); format: functional
BGC-823 [37] = experiment: Induction of apoptosis in human BGC-823 cells assessed as early apoptotic cells at 0.5 uM incubated for 48 hrs by Annexin V-FITC/PI staining based flow cytometric analysis ( Rvb = 1.68 %); format: functional
[38] = AUC (0 to infinity) in rat at 10 mg/kg, iv measured after 24 hrs by LC-MS/MS analysis; format: ADME, organism-based; conditions: in vivo
BGC-823 [39] = experiment: Induction of apoptosis in human BGC-823 cells assessed as late apoptotic cells at 1 uM incubated for 48 hrs by Annexin V-FITC/PI staining based flow cytometric analysis ( Rvb = 5.61 %); format: functional

CC1(C)CC[C@]2(C(=O)OCCCCOC(=O)c3ccc(O)cc3)CC[C@]3(C)[C@H](C(=O)C=C4[C@@]5(C)C=C(C#N)C(=O)C(C)(C)[C@@H]5CC[C@]43C)[C@@H]2C1
viability at 0.5 µM (BGC-823 [1]): 74.7% | AUCt [2]: 7310 ng·h/mL | clearance [3]: 8.4 mL/min/kg | Activity (BGC-823 [4]): 3.01% | Activity (Cell membrane [5]): 15.4% | Activity (BGC-823 [6]): 5.9% | half-life [7]: 16.5 h | Vd [8]: 3.99 L/kg | Ratio [9]: 1.08 | Vz [10]: 20.63 L/kg | half-life [11]: 5.4 h | Activity (BGC-823 [12]): 5.79% | Cmax [13]: 19000 ng/mL | Activity (Cell membrane [14]): 96.7% | viability at 0.25 µM (BGC-823 [15]): 90.6% | Activity (BGC-823 [16]): 95.3% | Activity (Cell membrane [17]): 24.5% | Activity (BGC-823 [18]): 5.52% | Activity (BGC-823 [19]): 61.6% | Activity (Cell membrane [20]): 84.2% | CL [21]: 14.4 mL/min/kg | AUC [22]: 1163 ng·h/mL | Cmax [23]: 881 ng/mL | Activity (Cell membrane [24]): 77.4% | Activity (BGC-823 [25]): 23.2% | Activity (Cell membrane [26]): 97.8% | AUC(0-t) at 24 h [27]: 20000 ng·h/mL | Activity (BGC-823 [28]): 16.1% | Activity (Cell membrane [29]): 2.06% | Activity (Cell membrane [30]): 3.14% | Activity (BGC-823 [31]): 0.49% | Activity [32]: Active | viability at 1 µM (BGC-823 [33]): 50.1% | Activity (BGC-823 [34]): Dose-Dependent Effect | Activity (BGC-823 [35]): 67.2% | Activity (BGC-823 [36]): 14% | Activity (BGC-823 [37]): 3.44% | AUC(0-inf) [38]: 20200 ng·h/mL | Activity (BGC-823 [39]): 30.4%
